Key:
cytochrome c = experiment: Enzymatic NAD(P)H oxidation / cytochrome c reduction catalyzed by N2N1; format: biochemical
Experimental: FIGS. 5A-5C provide graphs and schemes relating to the N2N1 mechanism of action. […] No specific substrate was added into reaction mix, therefore, it was concluded that reaction was driven by slow reduction of molecular oxygen dissolved into reaction buffer. The hypothetical reaction equation is shown below reaction plots. (B) The proposed molecular mechanism of possible substrate reduction catalyzed by N2N1. (C) Addition of peroxide or cytochrome c into reaction allowed us to identify cytochrome c as the most preferable substrate for the N2N1 driven enzymatic reaction. […] It was interesting to notice that addition of cytochrome c to non-enzymatic reaction reduced the reaction rate. […] The hypothetical reaction equation is show below the reaction plots.
FIGS. 6A-6B provide graphs showing the enzymatic reduction of cytochrome C catalyzed by N2N1 can utilize both NADH and NADPH. (A) The enzymatic electrons transfer from NADH to cytochrome c driven by N2N1 was monitored by decrease in absorption at 340 nm (NADH) and increase in absorption at 550 nm (cytochrome c). The absorbance spectrum was screened at the end of the reaction (˜1 hour). The hypothetical reaction equation is shown below the reaction plots. (B) The enzymatic electrons transfer from NADPH to cytochrome c driven by N2N1 was monitored by decrease in absorption at 340 nm (NADPH) and increase in absorption at 550 nm (cytochrome c). The hypothetical reaction equation is shown below the reaction plots.
To evaluate possible participation of mitochondrial NADH oxidoreductases, in particular Complex I and III, the […] was run in the presence of rotenone or antimycin A (2 μM). The acquired data allowed us to specify the most probable candidate that carry out the transfer electrons from NAD(P)H to cytochrome C driven by N2N1. The NQO1 protein would be the most likely candidate, while proteins from CYB5 family still cannot be ruled out.
Bonkowski et al., Nature reviews. Molecular cell biology 17, 679-690 (2016); Orr et al., Antioxidants & redox signaling 19, 788-803 (2013). It quite possible, that NAD(P)H oxidation catalyzed by N2N1 is performed by NADH:cytochrome b5 reductases (CYB5 . . . ) or NAD(P)H:quinone oxidoreductase (NQO1) reductase (FIG. 3C). The inventors found by RNA-seq analysis that fourteen genes from CYB5 family were expressed in normal fibroblast. NQO1 was also detected at the high level of expression. These reductases connect aerobic metabolism with aging by directed electron flow from NAD(P)H to oxygen, cytochrome C, and peroxide. Jimenez-Hidalgo et al., Aging cell 8, 140-151 (2009). […]

[1] = Non-enzymatic electron transfer from NAD(P)H to oxidized glutathione; format: biochemical; conditions: potassium phosphate buffer pH 7.0, 37° C.
Experimental: FIGS. 4A 4B provide graphs and schemes showing VA's mechanism of action. […] (A) Different concentrations of VA were incubated with GssG in potassium phosphate buffer at pH 7.0, 37° C. […] The effective concentrations of VA were similar to the detected for the extension of RLS in normal or progeroid cells. (B) The proposed molecular mechanism of glutathione reduction catalyzed by VA. The slightly acidic buffers (pH 7.0) supplemented with potassium (100 mM) were the preferable reaction conditions.
Lead compounds were tested on their possible catalytic amelioration of enzyme kinetics with all above mentioned proteins: recombinant and presented in cellular lysates.

[2] = test system: global protein disulfide bonds; experiment: Global protein disulfide bonds (Elman's reagent, biotin-switch assay); format: cell-based; conditions: Elman's reagent or biotin-switch assay
Excerpt: FIGS. 3A-3C provide graphs and schemes showing the preliminary data that directed the plan to find the mechanism of action of identified anti-aging compounds. (A) Substantial decrease in oxidized sulfhydryl groups were detected after several days of treatment with VA. […] The inventors decided to check if VA can participate in catalytic reactions performed by the enzymes involved in generation of reductive potential or its utilization by transferring the electrons to oxidized disulfide bonds t. […] In particular, catalytic reduction of molecular oxygen and cytochrome c was observed. Therefore, the inventors decided to take into account the most prominent enzymes that were noted to be involved into initiation or prevention aging-like traits.
Based on results obtained on tissue cultured cells (increased RLS) and an increase in the numbers of HSC surrogate cells (LTC-IC or CFU), the inventors set their future goal to develop a novel pharmacological treatment for AA patients and potentially for other BMF. […] The only persistent effect of VA was considerable reduction in global protein disulfide bonds (up to 30%) detected by Elman's reagent or direct labelling of reduced sulfhydryl groups with biotin-switch assay (FIG. 3A). […]

[3] = test system: erythropoietin-dependent UT7 cells; experiment: Growth of erythropoietin-dependent UT7 cells; format: cell-based

Structure (SMILES) | catalysis of enzymatic NADH and NADPH conversion (cytochrome c; 1 μM) | time to complete reduction of cytochrome c (cytochrome c; 0.5 mM cytochrome c, NADH or NADPH) | rate of NAD(P)H oxidation by GssG [1] | reduction in global protein disulfide bonds [2] | growth support [3]
O=C1/C(=N/O)C=Cc2ccccc21 [N2N1, 1-naphthoquinone-2-monoxime] | actively catalyze | 10 to 15 min | – | – | –
O=C1NC(=O)C(=NO)C(=O)N1 [VA, 2,4,5,6(1H,3H)-pyrimidine-tetrone 5-oxime] | – | – | substantially increase the reaction rate | up to 30% | does not support the growth
